From patent US20060069104A1, “Neurotrophic factor production accelerator” (priority 2002, published 2006) come the findings set out here.

SMILES strings stand for the structures.

The test has as its system GDNF mRNA in cultured astroglia. Kind of test: Quantification of GDNF mRNA by RT-PCR in cultured astroglia. The class given is cell-based, Wistar rat. The settings on record: cultured rat astroglia. As for the experimental part: Astroglia was prepared from the brain of a 1 to 2-day-old Wistar rat. It was inoculated to a 75 cm^2 culture flask, and incubated in Eagle's minimum essential medium supplemented with 10% fetal bovine serum for 10 to 14 days. Then, it was shaken overnight at 250 rpm, and microglia and oligodendroglia on the astroglia monolayer were removed. Astroglia was dispersed in 0.25% trypsin (1:400, Invitrogen), and inoculated to a 6-well plate. It was further incubated for 7 to 10 days, and confluent cells were used for the experiment.
The cultured astroglia prepared by the above-mentioned method was incubated in serum-free Eagle's minimum essential medium for 48 hours. The total RNA was prepared by AGPC (Acid Guanidinium-Phenol-Chloroform) method (Chomczynski P., and Sacchi N., Anal. Biochem. 162, 156-159 (1987)). […] The fluorescence intensity of the PCR product was imaged by Fluoro Imager (Molecular Dynamics), and fluorescence bands were quantified by NIH Image. The amount of the PCR product of the eurotrophic factor was standardized using the amount of the β-actin PCR product of cDNA, and the amount of relative mRNA was determined. The activity of N-(4-acetyl-1-piperazinyl)-p-fluorobenzamide monohydrate (hereinafter to be also referred to as a test drug.) on neurotrophic factor production was evaluated by a Tukey-Kramer assay. […]

For `CC(=O)N1CCN(NC(=O)c2ccc(F)cc2)CC1.O` [test drug, N-(4-acetyl-1-piperazinyl)-p-fluorobenzamide monohydrate], under “serum-free medium, from 3 hours after the treatment with the test drug, RT-PCR, Tukey-Kramer”, the “amount of GDNF mRNA (relative mRNA amount standardized using the amount of the β-actin PCR product)” value is given as “significant increase”. In addition, the “time of peak of GDNF mRNA amount after treatment” value (time-course after treatment with the test drug (FIG. 1)) amounted to 6 h.
